Molecules are shown by their SMILES.

As usually defined, the inhibition is the relative decrease from the control value, in per cent. A word on the IC50: it is the concentration needed to halve the response being measured.

Experiment [1] has as its target T1, human calcitonin gene-related peptide (hCGRP) receptor (Homo sapiens, UniProt O60894+Q16602).
T1 construct: expressed in transfected cells; host or cells: CHO (membrane homogenates)
Briefly: CGRP receptor radioligand binding assay. The settings on record: 0.03 nM [125I]h-CGRPα, CHO cell membranes, read-out: percentage inhibition of control radioligand specific binding to hCGRP receptor. As to the method:
The effect of carnosol on the agonist site of the human calcitonin gene-related peptide (hCGRP) receptor in transfected CHO cells was investigated using a radioligand binding assay adapted from that described by Aiyar et al. (1996, J. Biol. Chem., 271: 11325-11329).
Briefly, cell membrane homogenates (10 μg protein) were incubated for 90 min at 22° C. with 0.03 nM [^125I]h-CGRPα in the absence or presence of carnosol (10 μM) in a buffer containing 50 mM HEPES-NaOH (pH 7.4), 10 mM MgCl2, 4 mM KCl, 10 mM NaCl, 1 mM EDTA, 1 μM phosphoramidon, 0.3% BSA and 0.04% bacitracine. Non-specific binding was determined in the presence of 1 μM h-CGRPα. Following incubation, the samples were filtered rapidly under vacuum through glass fibre filters (GF/B, Packard) pre-soaked with 0.3% polyethyleneimine (PEI) and rinsed several times with ice-cold 50 mM Tris-HCl using a 96-sample cell harvester (Unifilter, Packard). The filters were dried then counted for radioactivity in a scintillation counter (Topcount, Packard) using a scintillation cocktail (Microscint 0, Packard). The results are expressed as percentage inhibition of the control radioligand specific binding. The standard reference compound used was h-CGRPα, the natural agonist of the hCGRP receptor.

The target in experiment [2] is T2, human noradrenaline transporter (hNAT) (Homo sapiens, UniProt P23975).
T2 construct: expressed in transfected cells; host or cells: MDCK
T2 sequence (P23975 whole entry): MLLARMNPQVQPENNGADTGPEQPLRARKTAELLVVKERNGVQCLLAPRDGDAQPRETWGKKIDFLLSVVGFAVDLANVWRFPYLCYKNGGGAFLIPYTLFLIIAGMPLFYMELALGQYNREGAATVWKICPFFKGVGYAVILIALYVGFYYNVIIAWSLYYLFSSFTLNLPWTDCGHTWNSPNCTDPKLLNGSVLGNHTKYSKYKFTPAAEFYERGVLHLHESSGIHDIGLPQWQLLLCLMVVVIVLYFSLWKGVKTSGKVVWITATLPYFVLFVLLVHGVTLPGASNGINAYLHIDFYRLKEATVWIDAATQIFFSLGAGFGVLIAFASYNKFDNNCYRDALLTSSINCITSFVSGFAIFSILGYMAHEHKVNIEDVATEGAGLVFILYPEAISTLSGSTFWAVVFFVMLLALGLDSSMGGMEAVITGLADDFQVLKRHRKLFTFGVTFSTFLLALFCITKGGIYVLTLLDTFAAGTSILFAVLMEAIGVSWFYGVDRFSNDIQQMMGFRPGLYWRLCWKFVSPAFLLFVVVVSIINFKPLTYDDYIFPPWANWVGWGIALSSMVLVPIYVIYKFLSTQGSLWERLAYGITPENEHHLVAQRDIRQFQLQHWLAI
Briefly: Noradrenaline uptake inhibition in MDCK cells expressing hNAT. It counts as cell-based. As to the method: Madin Darby canine kidney (MDCK) cells, stably expressing the human noradrenaline transporter (hNAT), were plated one day before the assay. […] Cells in each well were then rinsed twice, solubilised with 1% SDS lysis buffer and the lysate was analysed to determine [^3H]-noradrenaline uptake. […] Reduction of [^3H]-noradrenaline uptake by 50 percent or more (≧50%) relative to vehicle controls indicated significant inhibitory activity.

The test system of experiment [3] is mouse. The experiment in a line: Four Plates Test. The format is in vivo. The settings on record: −5 h and −1 h. An excerpt: The method, which detects anxiolytic activity, follows that described by Aron et al (1971, Neuropharmacology, 10:459-469). Anxiolytics (benzodiazepines) increase the number of punished crossings. Animals were placed individually in a white plastic enclosure containing a floor consisting of 4 metal plates connected to an electric shock generator (Apelex: type 011346). Each mouse was left to explore freely for 15 seconds. Then, every time it crossed from one plate to another, it received a weak electric shock (2.5 mA, 1.5 s). The number of punished crossings was counted during a 1 minute test. 15 mice were studied per group. The test was performed blind.
Carnosol was evaluated at 3 doses (200, 400, 600 mg/kg), administered p.o. 24 h, 5 h and 1 h before the test, and compared with a vehicle control (corn oil) group.
Clobazam (32 mg/kg p.o.), administered 1 h before the test, was used as reference substance. Mice in this group received additional administrations of vehicle at 24 h and 5 h before the test in order to maintain experimental blinding.

For experiment [4], the target named is human recombinant acetylcholinesterase (Homo sapiens, UniProt P22303). Briefly: Acetylcholinesterase inhibition (Ellman method). The format is biochemical. To be noted: substrate AMTCh 50 μM, read-out: percentage inhibition of acetylcholinesterase activity. The procedure: The effect of carnosol on human recombinant acetylcholinesterase activity was quantified by measuring the formation of 5-thio-2-nitrobenzoic acid from acetyl-6-methylthiocholine (AMTCh), as adapted from Ellman et al. (1961, Biochem. Pharmacol., 7: 88-90). Briefly, carnosol (10 μM), reference compound or water (control) were added to a buffer containing 200 mM NaH2PO4/Na2HPO4 (pH 8.0), 5 mg/ml (NH4)2SO4, 0.4 mM DTNB and 5 mU enzyme. The enzymatic reaction was then initiated by the addition of the substrate AMTCh at 50 μM. The absorbance was measured immediately (t=0) at λ=405 nm using a microplate reader (MRX, Dynatech or Ultra, Tecan). This measurement was used to detect any compound interference with the spectrophotometric detection at this wavelength. After 30 min incubation at 37° C. (t=30), a second measurement of the absorbance was made at λ=405 nm. The enzyme activity was determined by subtracting the signal measured at t=0 from that measured at t=30. The results are expressed as percentage inhibition of the control enzyme activity. The standard inhibitory reference compound used was neostigmine, tested in each experiment at several concentrations to obtain an inhibition curve from which its IC50 value was calculated.
Chain of human recombinant acetylcholinesterase (P22303 32-614): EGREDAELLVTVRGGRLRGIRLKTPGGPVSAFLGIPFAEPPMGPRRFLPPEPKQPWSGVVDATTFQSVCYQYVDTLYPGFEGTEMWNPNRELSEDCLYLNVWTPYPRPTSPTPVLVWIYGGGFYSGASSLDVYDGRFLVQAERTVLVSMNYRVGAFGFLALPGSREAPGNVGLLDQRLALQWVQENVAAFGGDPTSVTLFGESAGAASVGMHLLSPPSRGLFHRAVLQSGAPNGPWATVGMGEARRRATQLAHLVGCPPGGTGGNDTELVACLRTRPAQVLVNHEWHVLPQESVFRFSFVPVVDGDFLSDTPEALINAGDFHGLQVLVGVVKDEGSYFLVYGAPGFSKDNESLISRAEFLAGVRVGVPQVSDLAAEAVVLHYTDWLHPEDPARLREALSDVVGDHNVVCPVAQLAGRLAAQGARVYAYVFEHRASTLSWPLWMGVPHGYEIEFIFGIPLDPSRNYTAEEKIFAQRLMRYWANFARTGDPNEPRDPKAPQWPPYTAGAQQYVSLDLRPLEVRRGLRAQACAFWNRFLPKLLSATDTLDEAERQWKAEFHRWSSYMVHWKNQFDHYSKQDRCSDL

Experiment [5] addresses T3, human dopamine transporter (hDAT) (Homo sapiens, UniProt Q01959).
T3 construct: expressed in transfected cells; host or cells: CHO-K1
The experiment in a line: cell-based. To be noted: transfected CHO-K1 cells, 50 nM [3H]-dopamine; read-out: IC50, inhibition of dopamine reuptake. As to the method:
Specific signal was determined in the presence of 10 μM nomifensine (dopamine reuptake inhibitor). Cells were then solubilised with 1% SDS lysis buffer.

T3 sequence (Q01959 whole entry): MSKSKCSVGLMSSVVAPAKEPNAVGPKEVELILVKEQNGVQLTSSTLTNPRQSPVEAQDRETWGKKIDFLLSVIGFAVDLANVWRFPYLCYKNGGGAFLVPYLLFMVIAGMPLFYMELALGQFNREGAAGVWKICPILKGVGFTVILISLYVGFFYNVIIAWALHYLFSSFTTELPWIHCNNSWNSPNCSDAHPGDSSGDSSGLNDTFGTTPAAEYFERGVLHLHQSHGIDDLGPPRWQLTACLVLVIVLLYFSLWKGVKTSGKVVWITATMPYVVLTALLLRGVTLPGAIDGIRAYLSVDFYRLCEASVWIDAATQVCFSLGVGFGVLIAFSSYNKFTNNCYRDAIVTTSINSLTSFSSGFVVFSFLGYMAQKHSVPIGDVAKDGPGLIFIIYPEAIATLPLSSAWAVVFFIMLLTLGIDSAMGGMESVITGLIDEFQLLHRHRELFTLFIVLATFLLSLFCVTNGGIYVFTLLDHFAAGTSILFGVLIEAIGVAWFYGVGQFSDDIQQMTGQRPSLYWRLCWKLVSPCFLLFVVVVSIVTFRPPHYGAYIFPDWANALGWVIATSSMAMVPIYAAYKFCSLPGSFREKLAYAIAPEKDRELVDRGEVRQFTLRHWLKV
T1 sequence (Q16602 23-461): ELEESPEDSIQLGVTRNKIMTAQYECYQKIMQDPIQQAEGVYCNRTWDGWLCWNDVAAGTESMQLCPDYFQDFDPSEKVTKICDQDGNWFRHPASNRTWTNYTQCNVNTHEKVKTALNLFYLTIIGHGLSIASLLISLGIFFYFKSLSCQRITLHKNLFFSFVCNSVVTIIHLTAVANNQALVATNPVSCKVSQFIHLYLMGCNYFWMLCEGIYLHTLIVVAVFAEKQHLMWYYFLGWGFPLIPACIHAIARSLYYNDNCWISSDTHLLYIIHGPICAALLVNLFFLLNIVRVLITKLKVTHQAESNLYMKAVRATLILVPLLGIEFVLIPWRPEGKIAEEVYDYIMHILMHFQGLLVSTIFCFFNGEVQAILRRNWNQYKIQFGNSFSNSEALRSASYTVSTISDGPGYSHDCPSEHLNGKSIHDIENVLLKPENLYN
T1 sequence (O60894 27-148): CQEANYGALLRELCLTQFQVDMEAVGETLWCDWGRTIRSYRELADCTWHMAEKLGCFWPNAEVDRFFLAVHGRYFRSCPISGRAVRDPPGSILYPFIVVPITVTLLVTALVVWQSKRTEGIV

Regarding `CC(C)c1cc2c(c(O)c1O)[C@@]13CCCC(C)(C)[C@@H]1C[C@@H]2OC3=O` [Carnosol, carnosol], the figures for the inhibition at 10 µM in experiment [1] and in experiment [4] were 54% and 53%, respectively. The half-inhibitory concentration (IC50) in experiment [2] turned out to be 30.6 µM; in experiment [5], 10.3 µM. The “Number of punished crossings, mean” value in experiment [3] (200 mg/kg p.o. −24 h) was 3.5; in experiment [3] (400 mg/kg p.o. −24 h), 3.7; in experiment [3] (600 mg/kg p.o. −24 h) it was 3.1.

The values above are taken from patent US8227508B2, “Dietary and pharmaceutical compositions containing carnosol and/or rosmanol and their uses” (DSM IP Assets B.V., priority 2006, dated 2012).
